According to the supplement of paper PMC10307832:

Key:
Experiment in all cases: relative viability (nuclei count vs DMSO), 5 days (fraction); higher = more cells survive
BAM7 + OSI-027 = compound: CCOC1=CC=CC=C1N=NC2=C(NN(C2=O)C3=NC(=CS3)C4=CC=CC=C4)C [BAM7] + COc1cccc2cc(-c3nc([C@H]4CC[C@H](C(=O)O)CC4)n4ncnc(N)c34)[nH]c12 [OSI-027] (partner 0.5 µM)
In short: (§1)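 Dosing by pin tool came one day after lung cancer cell lines were seeded in 1536-well plates, using either one drug or a fixed anchor-drug dose plus five library-drug doses (not always all listed) in √10 steps. After 5 days, nuclei were counted on 4× images. Relative viability is treated-well nuclei count divided by vehicle-well nuclei count, and values are medians of duplicate plates.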

BAM7 + Tozasertib = compound: CCOC1=CC=CC=C1N=NC2=C(NN(C2=O)C3=NC(=CS3)C4=CC=CC=C4)C [BAM7] + Cc1cc(Nc2cc(N3CCN(C)CC3)nc(Sc3ccc(NC(=O)C4CC4)cc3)n2)n[nH]1 [Tozasertib] (partner 0.1 µM)
In short: as §1

BAM7 + AZD7762 = compound: CCOC1=CC=CC=C1N=NC2=C(NN(C2=O)C3=NC(=CS3)C4=CC=CC=C4)C [BAM7] + NC(=O)Nc1cc(-c2cccc(F)c2)sc1C(=O)N[C@H]1CCCNC1 [AZD7762] (partner 0.2 µM)
In short: as §1

[1] = compound: CCn1c(-c2nonc2N)nc2c(C#CC(C)(C)O)ncc(OC[C@H]3CCCNC3)c21 + Cc1nc(NC(=O)N2CCC[C@H]2C(N)=O)sc1-c1ccnc(C(C)(C)C(F)(F)F)c1 [Alpelisib] (partner 2 µM)
In short: as §1

Cell Line | relative viability (BAM7 + OSI-027; first compound 0.5 µM) | relative viability (BAM7 + OSI-027; first compound 5 µM) | relative viability (BAM7 + OSI-027; first compound 50 µM) | relative viability (BAM7 + Tozasertib; first compound 0.5 µM) | relative viability (BAM7 + Tozasertib; first compound 5 µM) | relative viability (BAM7 + Tozasertib; first compound 50 µM) | relative viability (BAM7 + AZD7762; first compound 0.5 µM) | relative viability (BAM7 + AZD7762; first compound 5 µM) | relative viability (BAM7 + AZD7762; first compound 15.81 µM) | relative viability (BAM7 + AZD7762; first compound 50 µM) | relative viability ([1]; first compound 0.01 µM) | relative viability ([1]; first compound 0.03162 µM) | relative viability ([1]; first compound 0.1 µM) | relative viability ([1]; first compound 0.3162 µM) | relative viability ([1]; first compound 1 µM) | relative viability (BAM7 + OSI-027; first compound 15.81 µM) | relative viability (BAM7 + Tozasertib; first compound 15.81 µM)
NCI-H2347 | 0.478 | 0.446 | 0.4 | 0.75 | 0.426 | 0.525 | 0.768 | 0.657 | 0.902 | 0.794 | 1.09 | 0.97 | 0.992 | 0.972 | 1.17 |  | 
HCC-15 | 0.727 | 0.696 | 0.758 | 0.471 | 0.493 | 0.284 | 1.29 | 1.24 | 1.06 | 1.21 | 0.868 | 0.945 | 0.86 | 0.832 | 0.946 | 0.7 | 0.346
HCC-44 | 0.534 | 0.61 | 0.505 | 0.94 | 0.711 | 0.878 | 1.03 | 0.964 | 1.05 | 0.983 | 0.732 | 0.818 | 0.794 | 0.761 | 0.786 | 0.476 | 0.785
HCC-78 | 0.39 | 0.372 | 0.384 | 0.428 | 0.371 | 0.393 | 0.635 | 1.4 | 0.702 | 0.627 | 0.306 | 0.372 | 0.351 | 0.307 | 0.356 | 0.423 | 0.446
NCI-H727 | 0.591 | 0.509 | 0.738 | 0.496 | 0.599 | 0.52 | 0.586 | 0.675 | 0.678 | 0.41 | 0.576 | 0.527 | 0.714 | 0.608 | 0.479 | 0.523 | 0.555
NCI-H2087 | 0.818 | 0.552 | 0.559 | 0.227 | 0.244 | 0.205 | 1.34 | 1.47 | 1.25 | 1.07 | 0.917 | 1.2 | 1.13 | 1.02 | 0.927 | 0.441 | 0.211
BEN | 0.306 | 0.299 | 0.326 | 0.559 | 0.442 | 0.423 | 0.689 | 0.802 | 0.939 | 0.74 | 1.01 | 1.17 | 1.01 | 0.987 | 1.01 | 0.314 | 0.59
LCLC-103H | 0.366 | 0.505 | 0.537 | 0.445 | 0.513 | 0.51 | 0.825 | 0.88 | 0.725 | 0.781 | 0.984 | 0.945 | 1 | 0.848 | 0.953 | 0.504 | 0.402
EKVX | 0.648 | 0.768 | 0.662 | 0.424 | 0.36 | 0.333 | 0.871 | 0.617 | 0.668 | 0.704 | 0.937 | 0.943 | 0.862 | 0.842 | 0.919 | 0.557 | 0.183
